# Key:
# BRD4 [1] = biological target: T1, BRD4 (Homo sapiens, UniProt O60885); test: Chemmap genome-wide mapping of JQ1 binding sites, compared with BRD4 CUT&Tag; settings: 150,000 K562 cells; JQ1-bio probe
# T1 construct: U-2 OS and K562 suspension cells were harvested by centrifugation and fixed in 0.1% formaldehyde; endogenous in cells; host or cells: K562 (human leukaemia) and U-2 OS cells
# Method: BRD4 CUT&Tag was performed as described before (H.S. Kaya-Okur, et al. Nat. Protoc., 15 (2020) e23641). Briefly, cells were incubated with activated concanavalin A-coated magnetic beads (Bangs Labs, BP531). The bead-bound cells were permeabilized and incubated with anti-BRD4 (E2A7X) rabbit antibody (Cell Signalling Technology, 13440), followed by rabbit anti-mouse IgG antibody (Antibodies-Online, ABIN101961, RRID:AB_10775589). Diluted pA-Tn5 adapter complex was then added followed by the tagmentation reaction. Extracted DNA fragments were used for library preparation and Illumina sequencing.
# K562 cells = test: Dox-bio1 Chemmap in Tucidinostat-treated K562 cells; assay type: cell-based, human; settings: Tucidinostat 1 μM, 72 h
# Text: Mycoplasma-free human chronic myelogenous leukemia K562 cells (RRID:CVCL_0004) derived from a person were purchased from ATCC and cultured in RPMI 1640 (Gibco, 21875034) supplemented with 10% heat-inactivated fetal bovine serum (FBS, Gibco, A3840401). Human bone osteosarcoma epithelial U-2 OS cells (RRID:CVCL_0042) derived from a moderately differentiated sarcoma of the tibia of a person osteosarcoma were obtained from ATCC and cultured in DMEM (Gibco, 41966029) supplemented with 10% FBS. Both cell lines were grown in accordance with ENCODE cell culture protocols and periodically tested for mycoplasma contamination and identity confirmed by short tandem repeat (STR) typing. HDAC inhibitors (HDACi) were prepared at 10 mM as stock solution in DMSO. Cells were treated with HDACi dissolved to 1 μM final concentration or an equal concentration of vehicle (0.1% DMSO) for 72 hs.
# Cell preparation. U-2 OS cells were detached using accutase and immediately quenched using complete culture media. U-2 OS and K562 suspension cells were harvested by centrifugation and fixed in 0.1% formaldehyde (Thermo Scientific, 28906) in PBS for 2 min at room temperature, followed by quenching with glycine to a final concentration of 75 mM. […]
# genomic DNA = test: Chemmap genome-wide mapping of biotinylated doxorubicin binding sites; set-up: species or system human; settings: K562 cells
# Method: (§1) Cell preparation. U-2 OS cells were detached using accutase and immediately quenched using complete culture media. U-2 OS and K562 suspension cells were harvested by centrifugation and fixed in 0.1% formaldehyde (Thermo Scientific, 28906) in PBS for 2 min at room temperature, followed by quenching with glycine to a final concentration of 75 mM. Fixed cells were collected by centrifugation at 600×g for 4 min, followed by resuspension in cold wash buffer (20 mM HEPES pH7.5, 150 mM NaCl and 0.5 mM spermidine (Sigma, S0266)) in nuclease-free water supplemented with a complete Protease Inhibitor, EDTA-free (Sigma, 11873580001). (Note: For Chemmap of G4 ligands NaCl was replaced by equivalent concentrations of KCl in all buffers to maintain G4 stability. For optimal results, the concentration of cells needs to be adjusted based on target abundance and relative affinity of the probes. We employed cells at 1500 cells/μL (JQ1-bio) and 6000 cells/μL (G4 ligands and biotinylated doxorubicin))
# Probe-1st Ab complex assembly. Compound stock solution in DMSO was diluted to 10 μM in antibody buffer (2 mM EDTA, 0.1% BSA (Sigma, A8577), 0.05% digitonin (EMD Millipore, 300410) in wash buffer). For 5 samples, 20 μL probe solution (10 μM) and 16.7 μL anti-biotin (D5A7) Rabbit mAb (Cell Signaling Technology, 5597, concentration is ˜10 μM) were added to 200 μL antibody buffer and incubated on ice for 1 h to perform a complex at high concentration (probe in excess 1.2:1 to avoid non-specific antibody binding). […]
# Bead capture. For 5 samples, 50 μL (JQ1-bio) or 75 μL (G4 ligands and biotinylated Doxorubicin) concanavalin A beads (Bangs Labs, BP531) were washed twice in 1 mL binding buffer (20 mM HEPES pH 7.5, 10 mM KCl, 1 mM CaCl2, 1 mM MnCl2 in nuclease-free water) and resuspended in 75 μL binding buffer. 100 µL of cell suspension were incubated with 10 μL pre-washed concanavalin A beads at 25° C. for 10 min at 600 rpm. Beads-bound cells were gently washed twice with wash buffer, before resuspending in 100 μL probe-1st Ab solution and incubating at 4° C. overnight at 600 rpm.
# 2nd Ab-Tn5 transposome complexes assembly. For 5 samples, 2.5 μL 2nd Ab (Antibodies-Online, ABIN101961, RRID:AB_10775589) and 5 μL pA-Tn5 were added to 200 μL Dig-300 buffer (20 mM HEPES pH 7.5, 300 mM NaCl, 0.5 mM spermidine, 0.01% digitonin in nuclease-free water supplemented with Complete Protease Inhibitor, EDTA-free) and incubated on ice for 1 h. 300 μL antibody buffer were added to the 2nd-Tn5 complexes solution. (2nd Ab-Tn5 complexes at a ratio of 2:1).
# Tagmentation. Cells were washed 3× with 500 μL Dig-wash buffer (0.05% digitonin in wash buffer) and resuspended in 100 μL 2nd Ab-Tn5 transposome solution and incubated at 25° C. for 1 h at 600 rpm. […]
# dsDNA = test: FRET-melting assay; assay type: binding; settings: 1 μM; negative control dsDNA; n=2
# Method: 400 nM FAM-TAMRA dual-labelled oligonucleotides (Biomers) were annealed in assay buffer (60 mM potassium cacodylate, pH=7.4) at 95° C. for 5 min followed by gradually cooling to 20° C. A series of probe concentrations were prepared in a 8-well strip tube: 150 μL of 6 μM ligand in assay buffer was prepared as the initial concentration. Subsequent serial dilutions were made by adding 100 μL of probe solutions to 50 μL of assay buffer, resulting in 12 concentrations including a control (1% DMSO). 25 μL per solutions were transferred to 96-well plate, followed by adding 25 μL of annealed oligonucleotide solutions to each well. The plate was then sealed with an adhesive transparent cover and shaken gently for 10 min at room temperature. Measurements of restoring FAM signal were recorded on a Bio-Rad CFX96 Touch Real-Time PCR Detection System employing a temperature gradient from 25° C. to 95° C. at 0.5° C./min. Melting temperatures were determined by the first derivative maxima of relative fluorescence unit (RFU) value against […], and ΔTm was calculated by baseline correction of melting temperatures subtracting control group. A one-site binding model in GraphPad Prism 7 was utilised to fit FRET Tm curves. Mean was calculated from two replicates.
# DNA G-quadruplex [2] = test: Chemmap genome-wide mapping of G4 ligand binding sites (PDS, PhenDC3); set-up: species or system human; settings: K562 cells; biotinylated probes
# Method: as §1
# (§2) Probe-1st Ab complex assembly. Compound stock solution in DMSO was diluted to 10 μM in antibody buffer (2 mM EDTA, 0.1% BSA (Sigma, A8577), 0.05% digitonin (EMD Millipore, 300410) in wash buffer). […]
# DNA G-quadruplex [3] = test: PDS Chemmap after treatment of live K562 cells with unmodified PDS (competition); assay type: cell-based, human; settings: unmodified PDS 4 μM for 3 hr
# Method: as §1, §2
# BRD4 [4] = biological target: T1, BRD4; settings: K562 cells; published data; cited from earlier work
compound,measurement,setting,value
Cc1sc2c(c1C)C(c1ccc(Cl)cc1)=N[C@@H](CC(=O)NCCOCCOCCNC(=O)CCCC[C@@H]1SC[C@@H]3NC(=O)N[C@@H]31)c1nnc(C)n1-2 [JQ1-bio],JQ1 binding sites observed in each experiment,BRD4 [1],"around 10,000"
Nc1cc(F)ccc1NC(=O)c1ccc(CNC(=O)/C=C/c2cccnc2)cc1 [Tucidinostat],effect on doxorubicin binding (differential binding analysis),K562 cells,enhances the binding of doxorubicin
same,Dox-bio1 binding sites within initial open chromatin region,K562 cells; 95% in vehicle group,42%
COc1cccc2c1C(=O)c1c(O)c3c(c(O)c1C2=O)C[C@@](O)(C(=O)COC(=O)CCCC(=O)NCCOCCOCCOCCOCCNC(=O)CCCC[C@H]1SC[C@H]2NC(=O)N[C@H]21)C[C@@H]3O[C@H]1C[C@H](N)[C@H](O)[C@H](C)O1 [Dox-bio1],material recovered compared to other tested probes,"genomic DNA; 200 nM, same condition",up to 30 fold
same,consensus peaks for both Dox-bio1 and ATAC-seq,genomic DNA,"12,896"
same,peaks located in open chromatin regions mapped by ATAC-seq,genomic DNA,95%
same,high confidence Dox-bio1 binding sites,genomic DNA; depending on the probe concentration,around 14k
C[n+]1cc(NC(=O)c2ccc3ccc4ccc(C(=O)Nc5cc6ccccc6[n+](C)c5)nc4c3n2)cc2ccccc21 [PhenDC3],ΔTm on dsDNA,dsDNA,0 °C
same,overlap of high confidence binding sites with G4-seq data (OQS),DNA G-quadruplex [2],~88%
C[n+]1cc(NC(=O)c2ccc3ccc4c(NCCCCNC(=O)CCc5cn(CCOCCOCCOCCNC(=O)CCCC[C@@H]6SC[C@@H]7NC(=O)N[C@@H]76)nn5)cc(C(=O)Nc5cc6ccccc6[n+](C)c5)nc4c3n2)cc2ccccc21 [PhenDC3-bio],ΔTm on dsDNA,dsDNA,0 °C
NCCOc1cc(NC(=O)c2cc(OCCNC(=O)CCOCCOCCOCCOCCNC(=O)CCCC[C@@H]3SC[C@@H]4NC(=O)N[C@@H]43)cc(C(=O)Nc3cc(OCCN)c4ccccc4n3)n2)nc2ccccc12 [PDS-bio],ΔTm on dsDNA,dsDNA,0 °C
"NCCOc1cc(C(=O)Nc2cc(OCCN)c3ccccc3n2)nc(C(=O)Nc2cc(OCCN)c3ccccc3n2)c1 [PDS, Pyridostatin]",ΔTm on dsDNA,dsDNA,0 °C
same,overlap of high confidence binding sites with G4-seq data (OQS),DNA G-quadruplex [2],~89%
same,PDS Chemmap sites lost compared to untreated,DNA G-quadruplex [3],~6000
same,PDS Chemmap sites lost compared to untreated (percent),DNA G-quadruplex [3],60%
Cc1sc2c(c1C)C(c1ccc(Cl)cc1)=N[C@@H](CC(=O)NCCCNC(=O)OC1CC/C=C\CCC1)c1nnc(C)n1-2 (stereo partly shown) [JQ1-TCO],signal averaged at BRD4 CUT&Tag high confidence loci,BRD4 [4],close to the baseline
